Experimental data from patent publication US20110046147A1, “17BETA-HYDROXYSTEROID DEHYDROGENASE TYPE 1 INHIBITORS FOR THE TREATMENT OF HORMONE-RELATED DISEASES” (UNIVERSITAT DES SAARLANDES, priority 2007, published 2011).

Tests used:
[1] = target: T1, 17β-HSD1 (Homo sapiens, UniProt P14061); assay: Inhibition of 17β-HSD1 (estrone to estradiol, radio-HPLC); assay type: biochemical; conditions: for IC50: human placenta enzyme, 500 nM estrone, NADH 500 μM; for Selectivity IC50 (17β-HSD2)/IC50 (17β-HSD1): ratio of IC50 values
T1 construct: In both cases, human placenta served as the enzyme source; from tissue; host or cells: human placenta
T1 sequence (P14061 1-328): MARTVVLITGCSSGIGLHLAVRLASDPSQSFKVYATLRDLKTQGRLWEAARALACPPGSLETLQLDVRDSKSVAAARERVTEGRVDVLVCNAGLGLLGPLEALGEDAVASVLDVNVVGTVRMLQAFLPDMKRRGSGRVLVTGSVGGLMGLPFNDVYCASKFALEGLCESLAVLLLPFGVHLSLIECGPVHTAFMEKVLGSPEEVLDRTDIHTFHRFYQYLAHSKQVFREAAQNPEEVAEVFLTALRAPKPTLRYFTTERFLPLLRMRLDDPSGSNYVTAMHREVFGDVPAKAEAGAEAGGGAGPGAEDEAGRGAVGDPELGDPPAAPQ
Method: In the 17β-HSD1 test, NADH is employed as a cosubstrate at a final concentration of 500 μM in order to avoid the product inhibition occurring with NADPH. The enzyme preparation is diluted with test buffer to such an extent that the control conversion is 10 to maximally 20% (about 1:650). As the substrate, estrone in a final concentration of 500 nM is used, of which 3 nM is tritiated. 2,4,6,7-[^3H]estrone is purchased from Perkin-Elmer, Boston. The inhibitor is added as a solution in DMSO (control: pure DMSO without inhibitor; the final concentration of DMSO in the assay is 1% in all cases).
(§1) After the reaction, the substrate and product are extracted by partitioning with ether, separated by chromatography (HPLC) and quantified by means of radiodetection.

[2] = target: T2, 17β-HSD2 (Homo sapiens, UniProt P37059); assay: Inhibition of 17β-HSD2 (estradiol to estrone, radio-HPLC); assay type: biochemical; conditions: human placenta microsome fraction, 500 nM estradiol, NAD+ 1500 μM
T2 construct: from tissue; host or cells: human placenta, microsome fraction
T2 sequence (P37059 1-387): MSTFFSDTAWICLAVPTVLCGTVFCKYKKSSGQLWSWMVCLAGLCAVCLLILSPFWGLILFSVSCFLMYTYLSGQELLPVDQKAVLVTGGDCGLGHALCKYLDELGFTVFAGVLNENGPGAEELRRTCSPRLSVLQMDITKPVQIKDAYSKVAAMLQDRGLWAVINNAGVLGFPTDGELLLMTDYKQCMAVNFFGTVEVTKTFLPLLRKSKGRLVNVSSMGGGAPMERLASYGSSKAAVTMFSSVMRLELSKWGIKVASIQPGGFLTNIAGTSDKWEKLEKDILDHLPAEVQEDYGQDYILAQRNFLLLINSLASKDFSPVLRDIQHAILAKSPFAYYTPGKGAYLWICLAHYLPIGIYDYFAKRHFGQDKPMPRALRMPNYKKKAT
Method: Determination of the inhibitory activity of the potential inhibitors: Inhibition of 17β-HSD1 and 17β-HSD2: In both cases, human placenta served as the enzyme source (Lin, S.-X. et al., J. Biol. Chem., 267: 16182-16187 (1992)).
In the 17β-HSD2 test, the natural cosubstrate NAD^+ is employed at a final concentration of 1500 μM. The microsome fraction is diluted in test buffer, so that a control conversion of 20 to 30% results (about 1:350). As the substrate, estradiol in a final concentration of 500 nM is used, of which 3 nM is tritiated. 2,4,6,7-[^3H]estradiol is also purchased from Perkin-Elmer, Boston. The inhibitor is added as a solution in DMSO (control: pure DMSO without inhibitor; the final concentration of DMSO in the assay is […]). After the addition of the substrate, incubation is performed at 37° C. for 20 minutes. The reaction is quenched by the addition of HgCl2 (final concentration of HgCl2: 0.166 mM).
as §1

[3] = In vivo pharmacokinetics (rat), peroral cassette dosing; design: species or system Wistar rats; conditions: 10 mg/kg; for AUC(0-inf): extrapolated to ∞
Method: In vivo pharmacokinetics (rat): The compounds 29, 45, 47 and 59 and a reference compound were administered to adult male Wistar rats (n=4) perorally in a cassette dosing method (vehicle: Labrasol/water 1/1). The plasma profiles were established by means of LC-MS/MS.
• Cmax obs highest measured concentration • Cz last analytically quantifiable concentration • tmax obs time to reach the highest measured concentration • tz time to withdrawal of the last sample with analytically quantifiable concentration • t1/2z half life (determined from the slope of the declining portion of the concentration vs. time curve • AUC0-tz area below the concentration vs. time curve up to time tZ • AUC0-∞ area below the concentration vs. time curve, extrapolated to ∞

IC50 [1] | Selectivity IC50 (17β-HSD2)/IC50 (17β-HSD1) [1] | IC50 [2] | SMILES | other results
– | – | – | Oc1ccc(-c2cnc(-c3ccc(O)cc3)s2)cc1 [Compound 21, 4,4′-(1,3-Thiazole-2,5-diyl)diphenol] | inhibition of 17β-HSD1 at a concentration of 1 μM (in words) [1]: do not show any inhibition
– | – | – | Oc1ccc(-c2ccsc2-c2ccc(O)cc2)cc1 [Compound 27, 4,4′-Thiene-2,3-diyldiphenol] | inhibition of 17β-HSD1 at a concentration of 1 μM (in words) [1]: do not show any inhibition
– | – | – | Oc1ccc(-c2ccc(-c3ccc(O)cc3)s2)cc1 [Compound 30, 4,4′-Thiene-2,5-diyldiphenol] | inhibition of 17β-HSD1 at a concentration of 1 μM (in words) [1]: do not show any inhibition
0.11 µM | 6.8 | 0.75 µM | Oc1cccc(-c2ccc(-c3cccc(O)c3)s2)c1 [Compound 31, 3,3′-Thiene-2,5-diyldiphenol] | –
0.07 µM | 18 | 1.27 µM | Oc1ccc(-c2csc(-c3cccc(O)c3)c2)cc1 [Compound 33, 3-[4-(4-Hydroxyphenyl)-2-thienyl]phenol] | –
0.17 µM | 3.3 | 0.56 µM | Oc1cccc(-c2csc(-c3cccc(O)c3)c2)c1 [Compound 34, 3,3′-Thiene-2,4-diyldiphenol] | –
– | – | – | Oc1cccc(-c2nnc(-c3cccc(O)c3)o2)c1 [Compound 35, 3,3′-(1,3,4-Oxadiazole-2,5-diyl)diphenol] | inhibition of 17β-HSD1 at a concentration of 1 μM (in words) [1]: do not show any inhibition
0.51 µM | – | – | Oc1cccc(-c2nnc(-c3cccc(O)c3)s2)c1 [Compound 36, 3,3′-(1,3,4-Thiadiazole-2,5-diyl)diphenol] | –
0.82 µM | – | – | COc1ccc(-c2nsc(-c3cccc(O)c3)n2)cc1 [Compound 38, 3-[3-(4-Methoxyphenyl)-1,2,4-thiadiazole-5-yl]phenol] | –
– | – | – | Oc1ccc(-c2nsc(-c3ccc(O)cc3)n2)cc1 [Compound 39, 4,4′-(1,2,4-Thiadiazole-3,5-diyl)diphenol] | inhibition of 17β-HSD1 at a concentration of 1 μM (in words) [1]: do not show any inhibition
0.36 µM | 6.1 | 2.2 µM | Oc1ccc(-c2nsc(-c3cccc(O)c3)n2)cc1 [Compound 40, 3-[3-(4-Hydroxyphenyl)-1,2,4-thiadiazole-5-yl]phenol] | –
1.41 µM | 2.2 | 3.1 µM | Oc1ccc(-c2cccc(-c3cccc(O)c3)c2)cc1 [Compound 43, [1,1′;3′,1″]Terphenyl-4,3″-diol] | –
0.24 µM | 19 | 4.5 µM | Oc1ccc(-c2ccc(-c3cccc(O)c3)cc2)cc1 [Compound 44, [1,1′;4′,1″]Terphenyl-4,3″-diol] | –
0.04 µM | 49 | 1.97 µM | Cc1cc(-c2ccc(-c3cccc(O)c3)s2)ccc1O [Compound 45, 4-[5-(3-Hydroxyphenyl)-2-thienyl]-2-methylphenol] | t1/2z (half life) [3]: 3.8 h; tmax obs (time to reach the highest measured concentration) [3]: 4.0 h; tz (time of last sample with quantifiable concentration) [3]: 24.0 h; Cz (last analytically quantifiable concentration) ([3]; plasma): 43.4 ng/mL; AUC(0-t) ([3]; male, Wistar, plasma, po): 12000 ng·h/mL; AUC(0-inf) ([3]; male, Wistar, plasma, po): 12300 ng·h/mL
0.8 µM | 2.1 | 1.64 µM | Oc1cccc(-c2ccc(-c3ccc(O)c(O)c3)s2)c1 [Compound 46, 4-[5-(3-Hydroxyphenyl)-2-thienyl]benzene-1,2-diol] | –
0.01 µM | 94 | 0.94 µM | Oc1cccc(-c2ccc(-c3ccc(O)c(F)c3)s2)c1 [Compound 47, 2-Fluoro-4-[5-(3-hydroxyphenyl)-2-thienyl]phenol] | t1/2z (half life) [3]: 2.7 h; tmax obs (time to reach the highest measured concentration) [3]: 8.0 h; tz (time of last sample with quantifiable concentration) [3]: 24.0 h; Cz (last analytically quantifiable concentration) ([3]; plasma): 25 ng/mL; AUC(0-t) ([3]; male, Wistar, plasma, po): 19300 ng·h/mL; AUC(0-inf) ([3]; male, Wistar, plasma, po): 19400 ng·h/mL
0.05 µM | 4.6 | 0.23 µM | Oc1cccc(-c2ccc(-c3cc(F)c(O)c(F)c3)s2)c1 [Compound 48, 2,6-Difluoro-4-[5-(3-hydroxyphenyl)-2-thienyl]phenol] | –
0.04 µM | – | – | Oc1cccc(-c2ccc(-c3ccc(O)c(C(F)(F)F)c3)s2)c1 [Compound 49, 4-[5-(3-Hydroxyphenyl)-2-thienyl]-2-(trifluoromethyl)phenol] | –
0.53 µM | – | – | Oc1cccc(-c2ccc(-c3cccc(F)c3)s2)c1 [Compound 50, 3-[5-(3-Fluorophenyl)-2-thienyl]phenol] | –
0.52 µM | – | – | CS(=O)(=O)Nc1cccc(-c2ccc(-c3cccc(O)c3)s2)c1 [Compound 51, N-{3-[5-(3-Hydroxyphenyl)-2-thienyl]phenyl}methanesulfonamide] | –
0.34 µM | 6.9 | 2.34 µM | Oc1cccc(-c2ccc(-c3ccccc3)s2)c1 [Compound 52, 3-(5-Phenyl-2-thienyl)phenol] | –
0.72 µM | – | – | Oc1cccc(-c2ccc(-c3ccc(F)cc3)s2)c1 [Compound 54, 3-[5-(4-Fluorophenyl)-2-thienyl]phenol] | –
0.1 µM | 8.7 | 0.87 µM | Cc1cc(-c2csc(-c3cccc(O)c3)c2)ccc1O [Compound 55, 4-[5-(3-Hydroxyphenyl)-3-thienyl]-2-methylphenol] | –
0.1 µM | 20 | 2.02 µM | Cc1cc(-c2cnc(-c3cccc(O)c3)s2)ccc1O [Compound 56, 4-[2-(3-Hydroxyphenyl)-1,3-thiazole-5-yl]-2-methylphenol] | –
0.1 µM | 34 | 3.4 µM | Oc1cccc(-c2ccc(-c3cccc(O)c3)nc2)c1 [Compound 57, 3,3′-Pyridine-2,5-diyldiphenol] | –
1 µM | 5.5 | 5.5 µM | Oc1cccc(-c2cnc(-c3cccc(O)c3)cn2)c1 [Compound 58, 3,3′-Pyrazine-2,5-diyldiphenol] | –
0.2 µM | 26 | 5.1 µM | Oc1cccc(-c2nnc(-c3cccc(O)c3)nn2)c1 [Compound 59, 3,3′-(1,2,4,5-Tetrazine-3,6-diyl)diphenol] | tz (time of last sample with quantifiable concentration) [3]: 10.0 h; Cz (last analytically quantifiable concentration) ([3]; plasma): 54 ng/mL; AUC(0-t) ([3]; male, Wistar, plasma, po): 1200 ng·h/mL; AUC(0-inf) ([3]; male, Wistar, plasma, po): 1200 ng·h/mL; half-life ([3]; male, Wistar, plasma, po, read-out: t1/2z (half life) (converted)): 1.2 h; Tmax ([3]; male, Wistar, plasma, po, read-out: tmax obs (time to reach the highest measured concentration)): 3 h
